Measurements: patent publication US10287269B2, “Pyrazolyl pyrimidinone compounds as PDE2 inhibitors” (Merck Sharp & Dohme Corp., priority 2015, dated 2019)

biological target: T1, human PDE2A1 (Homo sapiens, UniProt O00408); assay: PDE2 IMAP FP inhibition assay, human enzyme (PDE selectivity panel format); type: biochemical; settings: Lab A; read-out: Human PDE2 Ki (nM) Lab A
T1 construct: GST; purchased BPS Bioscience (San Diego, Calif.) 60020; host or cells: insect cells
Procedure, shortened: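 GST-tagged human PDE2A1 from insect cells, run at room temperature in 10 mM Tris pH 7.2, 10 mM MgCl2, 1 mM DTT with 50 nM FAM-cAMP plus 1000 nM cGMP for 60 min. IMAP fluorescence polarization read-out; apparent Ki derived using apparent KM 10,000 nM.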

T1 sequence (O00408 1-920 isoform O00408-2): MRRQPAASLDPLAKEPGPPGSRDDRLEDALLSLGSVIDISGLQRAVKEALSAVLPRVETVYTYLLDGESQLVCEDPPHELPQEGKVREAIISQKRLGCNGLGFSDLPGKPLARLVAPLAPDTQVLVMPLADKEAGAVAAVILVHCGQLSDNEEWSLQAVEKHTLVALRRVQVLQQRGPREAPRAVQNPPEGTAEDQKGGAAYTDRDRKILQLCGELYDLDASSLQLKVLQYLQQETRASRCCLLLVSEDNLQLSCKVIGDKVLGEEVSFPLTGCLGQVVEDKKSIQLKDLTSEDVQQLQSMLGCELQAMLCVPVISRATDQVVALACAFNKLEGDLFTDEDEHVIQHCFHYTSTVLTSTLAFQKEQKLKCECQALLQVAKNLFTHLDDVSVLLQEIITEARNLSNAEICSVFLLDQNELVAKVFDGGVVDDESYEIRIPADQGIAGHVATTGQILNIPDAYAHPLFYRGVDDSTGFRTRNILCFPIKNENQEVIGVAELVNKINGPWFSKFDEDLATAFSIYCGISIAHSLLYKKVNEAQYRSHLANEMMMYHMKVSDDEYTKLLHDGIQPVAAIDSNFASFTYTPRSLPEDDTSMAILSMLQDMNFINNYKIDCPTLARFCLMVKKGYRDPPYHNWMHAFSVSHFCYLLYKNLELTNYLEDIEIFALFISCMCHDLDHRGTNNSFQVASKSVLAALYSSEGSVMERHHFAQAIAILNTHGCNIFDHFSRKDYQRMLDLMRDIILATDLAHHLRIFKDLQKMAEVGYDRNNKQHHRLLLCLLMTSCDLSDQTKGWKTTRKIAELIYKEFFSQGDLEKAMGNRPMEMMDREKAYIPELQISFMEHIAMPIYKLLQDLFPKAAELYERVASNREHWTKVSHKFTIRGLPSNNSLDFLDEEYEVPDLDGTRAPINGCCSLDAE

| Ki [nM] | SMILES |
| --- | --- |
| 1 | COc1ccc(Cc2nc(-n3cc(C(C)c4ccc(C(F)(F)F)cc4)cn3)cc(=O)[nH]2)cc1OC (stereo not shown) [Example 137, 2-(3,4-dimethoxybenzyl)-6-(4-(1-(4-(trifluoromethyl)phenyl)ethyl)-1H-pyrazol-1-yl)pyrimidin-4(3H)-one] |
| 1240 | Cc1ccc(C(C)n2cc(-c3cc(=O)[nH]c(C)n3)cn2)cc1 (stereo not shown) [Example 153, 2-methyl-6-(1-(1-(p-tolyl)ethyl)-1H-pyrazol-4-yl)pyrimidin-4(3H)-one] |

same assay, conditions: Lab B; read-out: Human PDE2 Ki (nM) Lab B

| SMILES | Ki [nM] |
| --- | --- |
| Cc1nc(-n2cc(C(C)c3ccc(C4(C)CC4)cc3)cn2)cc(=O)[nH]1 (stereo not shown) [Example 40, 2-methyl-6-(4-(1-(4-(1-methylcyclopropyl)phenyl)ethyl)-1H-pyrazol-1-yl)pyrimidin-4(3H)-one] | 197 |
| Cc1nc(-n2cc(Cc3ccc(C(F)(F)F)cc3)cn2)cc(=O)[nH]1 [Example 48, 2-methyl-6-(4-(4-(trifluoromethyl)benzyl)-1H-pyrazol-1-yl)pyrimidin-4(3H)-one] | 219 |
| Cc1nc(-c2cnn(C(C)c3ccc(C(F)(F)F)cc3)c2)cc(=O)[nH]1 (stereo not shown) [Example 126, 2-methyl-6-(1-(1-(4-(trifluoromethyl)phenyl)ethyl)-1H-pyrazol-4-yl)pyrimidin-4(3H)-one] | 233 |
| CCC(c1ccc(C(F)(F)F)cc1)c1cnn(-c2cc(=O)[nH]c(C)n2)c1 (stereo not shown) [Example 129, 2-methyl-6-(4-(1-(4-(trifluoromethyl)phenyl)propyl)-1H-pyrazol-1-yl)pyrimidin-4(3H)-one] | 141 |
| CCCC(c1ccc(C(F)(F)F)cc1)n1cc(-c2cc(=O)[nH]c(C)n2)cn1 (stereo not shown) [Example 154, 2-methyl-6-(1-(1-(4-(trifluoromethyl)phenyl)butyl)-1H-pyrazol-4-yl)pynmidin-4(3H)-one] | 265 |

Next, values leading:

| Ki [nM] | SMILES |
| --- | --- |
| 140 | Cc1nc(-c2cn(C(C)c3ccc(C(F)(F)F)cc3)nc2C)cc(=O)[nH]1 (stereo not shown) [Example 80, 2-methyl-6-(3-methyl-1-(1-(4-(trifluoromethyl)phenyl)ethyl)-1H-pyrazol-4-yl)pyrimidin-4(3H)-one] |
| 87.6 | Cc1nc(-n2cc(C(c3ccc(C(F)(F)F)cc3)C(C)C)cn2)cc(=O)[nH]1 (stereo not shown) [Example 130] |
| 0.4 | COc1ccc(Cc2nc(-n3cc(C(C)c4ccc(C(F)(F)F)cc4)cn3)cc(=O)[nH]2)cc1OC (stereo not shown) [Example 137, 2-(3,4-dimethoxybenzyl)-6-(4-(1-(4-(trifluoromethyl)phenyl)ethyl)-1H-pyrazol-1-yl)pyrimidin-4(3H)-one] |
